Experimental findings from patent US20120021011A1, “ANTI-INFLAMMATORY PHARMACEUTICAL COMPOSITION COMPRISING EXTRACTS FROM BROUSSONETIA PAPYRIFERA AND LONICERA JAPONICA” (Knu-Industry Cooperation Foundation, priority 2009, published 2012) are described below.

Assay [1] deals with acetic acid-induced writhing. In words: Acetic acid-induced writhing test on mice. The format is in vivo, mouse. The conditions noted are these: for Numbers of writhings: mean ± SD. Here is the method: In order to measure an antinociceptive activity, 1% acetic acid (100 μl) was intraperitoneally injected to a mouse. 10 minutes after the injection of the acetic acid, the number of writhings was counted for 10 minutes. Before the injection of the acetic acid, a test material dissolved in a mixture including DMSO and water at a ratio of 1:1 was orally administered (0.1 ml/mouse).
Each group consisted of 6 mice. Measurement values were represented by arithmetic mean±SD (a of Table 3). b of Table 3 indicates an inhibitory activity % compared to the control group treated with the acetic acid. * indicates a significant difference of P<0.05 compared to the acetic acid-treated control group.
On the technique in general: Writhing tests count abdominal constrictions after an irritant is injected.

Assay [2] deals with AA-induced mouse ear edema. In words: Arachidonic acid (AA)-induced mouse ear edema. The format is in vivo. The note with it: 20 mg/kg oral. Here is the method: AA-induced mouse ear edema assay was used to identify an anti-inflammatory activity in vivo in anti-inflammatory animal model. According to a method disclosed in Kim et al. (1993), 2% AA acetone solution was applied to an ear of a mouse (20 μl/ear), and after one hour, a thickness of the ear was measured using a dial thickness gauge (Mitutoyo, Japan). One hour before the AA treatment, a test material dissolved in a mixture including DMSO and water at a mixture ratio of 1:1 was orally administered to the mouse (0.1 ml/mouse).

The subject of assay [3] is CGN-induced mouse paw edema. In words: λ-Carrageenan (CGN)-induced mouse paw edema. The format is in vivo. The conditions noted are these: for Paw volume increased: 5 h after CGN, mean ± SD. Here is the method: Mouse CGN-induced paw edema assay was performed to measure an anti-inflammatory activity according to a slightly modified method disclosed in Winter et al. (1962). […] If the volume was greater than that before the addition of CGN, it was deemed that edema developed. The test material was dissolved in a mixture including DMSO and water at a mixture ratio of 1:1 and then was orally administered. A volume of a negative control group which was not treated with CGN was 0.149±0.025 ml.
For orientation: In the carrageenan paw model, swelling and tenderness develop within hours.

For assay [4], the target named is T1, 5-LOX (Rattus norvegicus, UniProt P12527).
T1 construct: RBL-1 cells obtained from American Type Culture Collection; endogenous in cells; host or cells: RBL-1 (rat basophilic leukemia) cells, ATCC
T1 sequence (P12527 1-673): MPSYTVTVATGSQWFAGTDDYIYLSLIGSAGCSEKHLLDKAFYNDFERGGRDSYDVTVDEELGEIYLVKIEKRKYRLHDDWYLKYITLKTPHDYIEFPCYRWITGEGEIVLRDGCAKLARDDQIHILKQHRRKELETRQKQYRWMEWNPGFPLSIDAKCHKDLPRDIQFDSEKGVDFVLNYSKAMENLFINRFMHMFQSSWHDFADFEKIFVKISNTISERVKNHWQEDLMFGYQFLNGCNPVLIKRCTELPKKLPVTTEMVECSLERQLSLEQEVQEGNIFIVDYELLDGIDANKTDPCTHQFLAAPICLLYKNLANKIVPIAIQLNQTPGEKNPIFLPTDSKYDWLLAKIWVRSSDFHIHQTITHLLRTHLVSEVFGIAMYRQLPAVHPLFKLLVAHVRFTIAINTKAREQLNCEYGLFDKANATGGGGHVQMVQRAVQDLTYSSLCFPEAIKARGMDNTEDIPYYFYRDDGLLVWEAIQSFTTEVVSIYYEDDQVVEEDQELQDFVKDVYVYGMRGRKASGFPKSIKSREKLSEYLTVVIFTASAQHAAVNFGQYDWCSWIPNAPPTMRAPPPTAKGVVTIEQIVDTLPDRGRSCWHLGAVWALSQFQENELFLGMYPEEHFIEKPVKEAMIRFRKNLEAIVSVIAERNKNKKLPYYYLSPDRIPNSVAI
In words: 5-LOX-mediated cysteinyl leukotriene (LTC4/D4/E4) production in A23187-treated RBL-1 cells. The format is cell-based. The conditions noted are these: 1 nM, read-out: 5-LOX inhibitory activity. As to the method: The cells were placed on 96-well plates for 2 hours, and incubated in advance with a test material for 10 minutes. The test material was dissolved in DMSO and diluted with serum-free DMEM at an appropriate concentration. The final concentration of DMSO was adjusted to be 0.1% (v/v). […] A medium used was collected and a concentration of cysteinyl leukotrienes (LTC4/D4/E4) produced by 5-LOX was measured using an ELISA kit (Cayman Chem.) according to a method recommended by the manufacturer.
It is known that when RBL-1 cells are activated by A23187 (calcium ionophore), a great amount of cysteinyl-LTs is generated by 5-LOX.

Turning to `CC(=O)Oc1ccccc1C(=O)O` [Aspirin, aspirin], the “inhibitory activity % compared to the acetic acid-treated control group (writhings)” value amounted to 60.9% in assay [1] (Exp. 1, 100 mg/kg oral) and 46.1% in assay [1] (Exp. 2, 100 mg/kg oral). In addition, the Numbers of writhings in assay [1] (Exp. 1, 100 mg/kg oral) was 5.7 ± 3.8; in assay [1] (Exp. 2, 100 mg/kg oral) it was 9.6 ± 3.2.

Consider `COc1ccc2c(c1)c(CC(=O)O)c(C)n2C(=O)c1ccc(Cl)cc1` [Indomethacin, indomethacin], for which, in assay [2], the “inhibitory activity % compared to the AA-treated control group (ear edema)” value was 70%. Besides, the Ear thickness increased in assay [2] (1 h after AA, mean ± SD) is on record as 0.021 ± 0.013 mm. Also, the “inhibitory activity % compared to the CGN-treated control group (paw edema)” value was determined as 23.7% in assay [3] (20 mg/kg oral) and 44.7% in assay [3] (100 mg/kg oral). The Paw volume increased turned out to be 0.116 ± 0.039 mL in assay [3] (20 mg/kg oral) and 0.084 ± 0.019 mL in assay [3] (100 mg/kg oral).

As for `CC(Cc1ccc(O)c(O)c1)C(C)Cc1ccc(O)c(O)c1` (stereo not shown) [NDGA, nordihydroguaiaretic acid], in assay [4], the inhibition at 0.001 µM was 99%.

With `C[C@]12C=CC(=O)C=C1CC[C@@H]1[C@@H]2[C@@H](O)C[C@@]2(C)[C@H]1CC[C@]2(O)C(=O)CO` [Prednisolone, prednisolone], in assay [3] (20 mg/kg oral), the “inhibitory activity % compared to the CGN-treated control group (paw edema)” value is on record as 50.0% and the Paw volume increased is 0.076 ± 0.011 mL.
